The text below walks through data of PMC11678425, “(-)-Syringaresinol Exerts an Antidepressant-like Activity in Mice by Noncompetitive Inhibition of the Serotonin Transporter” (Pharmaceuticals, 2024).

One experiment concerns the target hSERT (Homo sapiens, UniProt P31645). Conditions: 22 °C.
In a further experiment the target is T1, hSERT I172F (Homo sapiens, UniProt P31645, I172F).
T1 construct: forward and reverse primers were used to amplify a full-length hSERT; expressed in transfected cells; host or cells: HeLa
T1 sequence (P31645 whole entry I172F): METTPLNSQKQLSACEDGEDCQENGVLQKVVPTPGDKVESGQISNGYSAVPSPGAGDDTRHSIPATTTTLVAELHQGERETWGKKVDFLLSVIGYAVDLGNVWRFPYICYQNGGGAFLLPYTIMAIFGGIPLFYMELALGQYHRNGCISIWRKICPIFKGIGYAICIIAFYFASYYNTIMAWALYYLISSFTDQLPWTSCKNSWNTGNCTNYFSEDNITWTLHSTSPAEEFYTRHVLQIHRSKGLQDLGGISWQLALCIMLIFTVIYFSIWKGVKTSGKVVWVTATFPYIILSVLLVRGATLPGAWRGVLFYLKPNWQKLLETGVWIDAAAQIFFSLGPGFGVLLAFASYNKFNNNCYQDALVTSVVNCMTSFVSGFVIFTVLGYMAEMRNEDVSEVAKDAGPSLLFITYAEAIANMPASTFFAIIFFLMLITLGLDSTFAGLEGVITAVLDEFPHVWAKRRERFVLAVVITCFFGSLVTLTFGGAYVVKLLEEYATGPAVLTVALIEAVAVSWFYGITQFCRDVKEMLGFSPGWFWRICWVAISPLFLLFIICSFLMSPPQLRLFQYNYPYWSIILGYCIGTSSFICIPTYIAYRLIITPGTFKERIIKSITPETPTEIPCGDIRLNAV
Description: ASP^+ binding, hSERT I172F. Conditions: S1 site mutant, read-out: SYR IC50 for Binding.

For the next experiment, the target named is T2, hSERT T497A (Homo sapiens, UniProt P31645, T497A).
T2 construct: forward and reverse primers were used to amplify a full-length hSERT; expressed in transfected cells; host or cells: HeLa cells, transient, pcDNA3.1
T2 sequence (P31645 whole entry T497A): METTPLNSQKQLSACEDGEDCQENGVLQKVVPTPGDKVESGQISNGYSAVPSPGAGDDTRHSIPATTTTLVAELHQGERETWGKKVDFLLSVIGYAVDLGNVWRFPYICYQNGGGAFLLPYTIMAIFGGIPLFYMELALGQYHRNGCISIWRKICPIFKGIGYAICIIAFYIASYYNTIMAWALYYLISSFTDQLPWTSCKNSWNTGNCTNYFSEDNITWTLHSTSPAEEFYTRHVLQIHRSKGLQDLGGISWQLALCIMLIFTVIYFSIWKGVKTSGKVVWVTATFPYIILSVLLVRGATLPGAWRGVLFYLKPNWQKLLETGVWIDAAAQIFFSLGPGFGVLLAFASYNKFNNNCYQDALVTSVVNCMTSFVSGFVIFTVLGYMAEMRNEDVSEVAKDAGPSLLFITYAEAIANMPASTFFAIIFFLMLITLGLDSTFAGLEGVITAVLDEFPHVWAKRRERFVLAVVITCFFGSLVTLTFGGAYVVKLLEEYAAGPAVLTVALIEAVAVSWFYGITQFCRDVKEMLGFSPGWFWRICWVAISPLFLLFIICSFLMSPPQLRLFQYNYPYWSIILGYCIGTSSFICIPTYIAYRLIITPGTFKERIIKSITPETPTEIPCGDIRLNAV
The experiment in a line: APP^+ uptake, hSERT T497A. Type of experiment: cell-based. Particulars: S2 site mutant, read-out: SYR IC50 for Transport.

In the next experiment the target is T3, hSERT P560G (Homo sapiens, UniProt P31645, P560G).
T3 construct: forward and reverse primers were used to amplify a full-length hSERT; expressed in transfected cells; host or cells: HeLa cells, transient, pcDNA3.1
T3 sequence (P31645 whole entry P560G): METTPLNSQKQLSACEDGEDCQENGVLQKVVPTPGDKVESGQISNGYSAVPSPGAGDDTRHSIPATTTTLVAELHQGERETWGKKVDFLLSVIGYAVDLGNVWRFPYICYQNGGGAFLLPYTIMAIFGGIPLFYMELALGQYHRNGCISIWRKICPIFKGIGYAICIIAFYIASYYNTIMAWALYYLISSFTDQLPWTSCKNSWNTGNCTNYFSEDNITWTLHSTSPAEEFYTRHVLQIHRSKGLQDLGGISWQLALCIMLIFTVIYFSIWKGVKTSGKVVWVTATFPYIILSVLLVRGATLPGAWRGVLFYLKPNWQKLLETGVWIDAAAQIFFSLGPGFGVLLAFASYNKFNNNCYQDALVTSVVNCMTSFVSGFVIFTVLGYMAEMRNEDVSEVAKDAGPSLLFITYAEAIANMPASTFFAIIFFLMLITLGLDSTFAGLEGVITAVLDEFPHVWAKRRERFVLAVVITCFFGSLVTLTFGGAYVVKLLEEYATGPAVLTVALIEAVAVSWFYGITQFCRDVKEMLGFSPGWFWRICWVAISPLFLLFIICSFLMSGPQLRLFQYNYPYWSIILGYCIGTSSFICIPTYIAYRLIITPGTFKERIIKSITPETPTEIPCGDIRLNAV
Description: APP^+ uptake, hSERT P560G. It is filed as cell-based. Conditions: S2 site mutant, read-out: SYR IC50 for Transport.

The target in experiment [1] is T4, hSERT Q562N (Homo sapiens, UniProt P31645, Q562N).
T4 construct: forward and reverse primers were used to amplify a full-length hSERT; expressed in transfected cells; host or cells: HeLa
T4 sequence (P31645 whole entry Q562N): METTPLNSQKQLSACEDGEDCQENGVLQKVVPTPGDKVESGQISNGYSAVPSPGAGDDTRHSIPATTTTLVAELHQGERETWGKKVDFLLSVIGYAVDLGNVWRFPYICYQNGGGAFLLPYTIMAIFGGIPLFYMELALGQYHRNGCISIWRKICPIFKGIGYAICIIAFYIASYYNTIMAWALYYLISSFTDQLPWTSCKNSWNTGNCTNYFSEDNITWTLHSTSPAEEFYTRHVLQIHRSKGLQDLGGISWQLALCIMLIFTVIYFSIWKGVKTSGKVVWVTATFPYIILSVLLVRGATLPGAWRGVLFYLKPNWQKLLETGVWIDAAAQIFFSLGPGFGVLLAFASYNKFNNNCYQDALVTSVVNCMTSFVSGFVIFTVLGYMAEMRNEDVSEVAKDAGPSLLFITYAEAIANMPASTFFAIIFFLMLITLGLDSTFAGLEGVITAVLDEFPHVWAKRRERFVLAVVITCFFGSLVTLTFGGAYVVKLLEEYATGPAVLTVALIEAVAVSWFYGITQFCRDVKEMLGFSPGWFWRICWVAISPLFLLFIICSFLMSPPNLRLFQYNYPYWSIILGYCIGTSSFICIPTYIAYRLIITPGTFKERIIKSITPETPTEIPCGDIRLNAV
Description: APP^+ uptake, hSERT Q562N. It is filed as cell-based. Conditions: S2 site mutant, read-out: SYR IC50 for Transport.

For the next experiment, the system named is c-Fos. Description: c-Fos immunohistochemistry in mPFC of CUMS mice. Type of experiment: in vivo, mouse. Particulars: 10 mg/kg i.p. The protocol:
Figure 7 SYR effects on the expression of c-Fos and synaptic proteins in mPFC. (A) Representative immunohistochemical images of c-Fos expression in mPFC under the indicated treatments. Immunohistochemistry of c-Fos was performed with mPFC slices as described in Section 4. The slices were re-probed with anti-DAPI antibody. Immunofluorescence images for c-Fos (green) and DAPI (blue) were acquired by confocal microscopy. (B) Quantitative analysis for c-Fos expression in mPFC with various treatments. Protein expression is expressed as a percentage of c-Fos fluorescence measured in the control group. Bars represent the mean ± SEM (n = 4). * p < 0.05, ** p < 0.01 compared with the control or CUMS group by one-way ANOVA followed by post hoc tests, respectively. (C) Representative immunoblots of the synaptic proteins BDNF, PSD-95, GluA1, and vGluT1 with various treatments. (D–G) Quantification of the expression of the synaptic proteins BDNF (D), PSD-95 (E), GluA1 (F), and vGluT1 (G). The expression level is expressed as a percentage of the integrated density obtained from the control group. Bars represent the mean ± SEM (n = 4). * p < 0.05, ** p < 0.01 by one-way ANOVA followed by post hoc tests.
Mouse mPFC and hippocampal slices were prepared as previously described. […]

A further experiment has as its target T5, hSERT F556A (Homo sapiens, UniProt P31645, F556A).
T5 construct: forward and reverse primers were used to amplify a full-length hSERT; expressed in transfected cells; host or cells: HeLa cells, transient, pcDNA3.1
The experiment in a line: ASP^+ binding, hSERT F556A. Conditions: S2 site mutant, read-out: SYR IC50 for Binding.

Experiment [2] deals with T4, hSERT Q562N. Description: ASP^+ binding, hSERT Q562N. Particulars: S2 site mutant, read-out: SYR IC50 for Binding.
Another experiment deals with T6, hSERT WT (Homo sapiens, UniProt P31645).
T6 construct: forward and reverse primers were used to amplify a full-length hSERT; expressed in transfected cells; host or cells: HeLa cells (CCL-2), transient, pcDNA3.1
T6 sequence (P31645 whole entry): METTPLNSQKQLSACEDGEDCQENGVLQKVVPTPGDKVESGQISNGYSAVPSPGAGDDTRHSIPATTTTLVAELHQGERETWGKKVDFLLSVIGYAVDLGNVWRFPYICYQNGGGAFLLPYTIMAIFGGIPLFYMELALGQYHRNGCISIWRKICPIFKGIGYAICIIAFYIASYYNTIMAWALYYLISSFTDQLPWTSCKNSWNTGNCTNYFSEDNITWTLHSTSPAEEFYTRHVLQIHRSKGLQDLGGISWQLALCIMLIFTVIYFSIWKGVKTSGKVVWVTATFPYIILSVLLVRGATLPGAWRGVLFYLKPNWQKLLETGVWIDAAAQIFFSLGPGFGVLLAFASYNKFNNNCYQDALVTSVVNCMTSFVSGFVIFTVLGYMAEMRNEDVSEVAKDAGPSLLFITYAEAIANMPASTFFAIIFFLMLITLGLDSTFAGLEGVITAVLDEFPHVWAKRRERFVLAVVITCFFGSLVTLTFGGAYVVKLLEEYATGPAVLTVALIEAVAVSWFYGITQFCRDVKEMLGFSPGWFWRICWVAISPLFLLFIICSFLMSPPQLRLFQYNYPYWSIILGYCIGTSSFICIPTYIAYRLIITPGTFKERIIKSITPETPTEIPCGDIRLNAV
The experiment in a line: ASP^+ binding, hSERT WT. Conditions: digitonin-permeabilized cells, read-out: SYR IC50 for Binding.

Chain of hSERT (P31645 whole entry): as above
T5 sequence (P31645 whole entry F556A): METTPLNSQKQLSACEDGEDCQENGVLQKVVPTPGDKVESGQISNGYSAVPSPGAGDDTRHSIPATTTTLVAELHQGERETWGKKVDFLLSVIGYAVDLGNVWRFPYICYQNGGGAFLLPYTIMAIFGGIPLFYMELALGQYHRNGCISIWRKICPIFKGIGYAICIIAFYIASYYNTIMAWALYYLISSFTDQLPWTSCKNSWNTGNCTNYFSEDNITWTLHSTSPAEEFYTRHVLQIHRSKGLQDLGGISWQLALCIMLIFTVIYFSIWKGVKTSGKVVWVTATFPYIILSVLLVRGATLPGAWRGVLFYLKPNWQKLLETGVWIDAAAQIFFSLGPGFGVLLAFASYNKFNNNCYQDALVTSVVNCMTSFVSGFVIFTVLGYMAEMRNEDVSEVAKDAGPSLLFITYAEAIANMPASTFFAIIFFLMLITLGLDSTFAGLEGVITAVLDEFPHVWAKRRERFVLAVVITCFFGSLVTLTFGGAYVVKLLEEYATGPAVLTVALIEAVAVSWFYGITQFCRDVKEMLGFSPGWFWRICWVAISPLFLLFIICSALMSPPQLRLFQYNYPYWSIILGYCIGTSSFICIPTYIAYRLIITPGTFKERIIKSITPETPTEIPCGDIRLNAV

For orientation: IC50 means the concentration that inhibits the measured activity by half. On to `COc1cc([C@@H]2OC[C@@H]3[C@H]2CO[C@H]3c2cc(OC)c(O)c(OC)c2)cc(OC)c1O` [SYR, (-)-syringaresinol], for which, on hSERT (10 μM + 10 μM 5-HT), the “effect on 5-HT-induced APP^+ efflux” value is “effectively blocked”. Further, the “effect on basal APP^+ efflux” value at hSERT (10 μM, cells preloaded with APP^+) is given as “not by SYR”. Moreover, the half-inhibitory concentration (IC50) is 1.51 ± 0.04 µM on hSERT I172F; 10.6 ± 2.4 µM at hSERT T497A; 5.99 ± 0.96 µM at hSERT P560G; 48.8 ± 4.51 µM at hSERT Q562N [1]; 21.6 ± 1.2 µM at hSERT F556A; 99.9 ± 2.04 µM on hSERT Q562N [2]. For the same molecule, the IC50 on hSERT WT came to 0.96 ± 0.02 µM. Also, the “CUMS-induced decrease in expression of c-Fos in mPFC” value with c-Fos is “significantly elevated”.
